Literature values in patent publication US9855513B2, “Method for producing concentrated aqueous solution of organic compound” (Kao Corporation, priority 2012, dated 2018).

Details: in a water of 100 g at 25° C.

OCC(O)CO [glycerol]
solubility degree: ∞
